The record followed here is patent US10604741B2, “Compositions and methods for enhancing virus replication” (TURNSTONE LIMITED PARTNERSHIP, priority 2013, dated 2020).

For test [1], the system named is VSVΔ51 in 786-0 cells. It counts as cell-based, human.
Test [2] concerns VSVΔ51 in 786-0 cells. It counts as cell-based, human. As to conditions: 24 hours.

For `CCN(CC)CCCCNc1ncc2cc(-c3cc(OC)cc(OC)c3)c(NC(=O)NC(C)(C)C)nc2n1` [PD173074], in test [1], the “effect on FGF2-induced enhancement of virus replication” value is “reduces FGF2-induced enhancement of virus replication”. Turning to “FGF2: recombinant human FGF2 protein; amino acid sequence shown in SEQ ID NO: 9”, the “FGF2-enhancement of virus replication at different MOIs” value in test [2] was “independent of the MOIs used”.
